Test results published in US9788546B2, “Synergistic pesticidal compositions and related methods” (DOW AGROSCIENCES LLC, priority 2013, dated 2017).
Where two headings read alike, the source gives them in different places.

What was measured:
Assay type in all cases: in vivo
[1] = test system: Western flower thrips, Frankliniella occidentalis (Pergande); experiment: Cotton leaf punch dip bioassay, mortality of nymphs; details: Compound II alone, 0.04 weight %; Example 5
Description: The active compounds were formulated in a 10% acetone solution with 0.025% non-ionic surfactant, TWEEN® 20. Cotton leaf punches were used for bioassays. Two cotton leaf punches were placed in each solution and left there for 10 minutes. Leaves were taken out of the solution, placed on a piece of filter paper in separated Petri dishes, and air dried. Each leaf disc was considered a repetition. Five nymph of Western flower thrips, Frankliniella occidentalis, were infested per repetition. The assessment of mortality was done three days after infestation. The percent control of the pesticidal composition Western flower thrips, Frankliniella occidentalis (Pergande), was determined as the “Observed” action, and compared to those obtained by using about 0.04 weight % of compound II, and using about 0.02 weight % of lambda-cyhalothrin alone. The “Colby's Expected Action” was calculated using Colby's equation as discussed previously.
The active compounds were formulated in a 10% acetone solution with 0.025% non-ionic surfactant, TWEEN® 20. Cotton leaf punches were used for bioassays. Two cotton leaf punches were placed in each solution and left there for 10 minutes. Leaves were taken out of the solution, placed on a piece of filter paper in separated Petri dishes, and air dried. Each leaf disc was considered a repetition. […]

[2] = test system: brown stink bug, Euschistus heros; experiment: Diet treatment bioassay, second-instar nymphs; details: Compound II alone, 0.04 weight %
[3] = test system: Lygus bug, Lygus hesperus (Knight); experiment: Treated string bean bioassay, four-day old nymphs; details: Compound II alone, 0.04 weight %
Description: String beans were treated with different active compounds for ten minutes. Three four-day old nymphs of Lygus bug, Lygus hesperus (Knight), were infested onto each bean sample.

[4] = test system: stink bugs (Edessa meditabunda, Euschistus heros, and Piezodorus guildinii); details: Compound II alone, field test
Description: […] Silwet L-77 at 0.1% V/V was used as an adjuvant in the tank mix, and the application was done using a CO2 backpack sprayer. Trial was conducted under a natural stink bug infestation. […] The stink bug population consisted on about 75% Edessa meditabunda, 20% of Euschistus heros, and 5% Piezodorus guildinii.
This was about 48% improvement over the Colby's expected action.

[5] = test system: brown stink bugs, Euschistus heros; experiment: Field spray and mesh cage test with alpha-cypermethrin, average mortality at 1 and 3 days; details: 1 and 3 days after treatment
Description: Two emulsifying concentrate pesticidal compositions with a weight ratio of compound I to alpha-cypermethrin of 1:1 were prepared. The first comprising 0.0167 weight % of compound I and about 0.0167 weight % of alpha-cypermethrin and the second comprising 0.0333 weight % compound I and 0.0333 weight % alpha-cypermethrin. The compositions were diluted and applied to the field using a spray volume of […]. The application was done using a CO2 backpack sprayer with a solid cone nozzle TXVK-8 (ConeJet). Plants were allowed to air dry and then were placed in a mesh cage where different instar stink bugs were infested (3rd and 4th nymphal stage, and adults). Average stink bug mortality was assessed at 1 and 3 days after application counting the number of dead insects and calculating the percent control based on the survivorship in the untreated.
The average percent control of the pesticidal composition against brown stink bugs, Euschistus heros, was determined as the “Average Observed” action, and compared to the average of those obtained by using about 0.0167 weight %, 0.0333 weight %, and 0.0667 weight % of compound I alone, and the average of those obtained using about 0.0167 weight % and 0.0333 weight % of alpha-cypermethrin alone. The “Colby's Expected Action” was calculated using Colby's equation as discussed previously. […]

[6] = test system: brown stink bugs, Euschistus heros; experiment: Field spray and mesh cage test with bifenthrin, average mortality at 1, 2, 4, and 7 days; details: 1, 2, 4, and 7 days after treatment
Description: Two emulsifying concentrate pesticidal compositions with a weight ratio of compound I to bifenthrin of 1:1 were prepared. The first comprising 0.0167 weight % of compound I and about 0.0167 weight % of bifenthrin and the second comprising 0.0333 weight % compound I and 0.0333 weight % bifenthrin. The compositions were diluted and applied to the field using a spray volume of […]. The application was done using a CO2 backpack sprayer with a solid cone nozzle TXVK-8 (ConeJet). Plants were allowed to air dry and then were placed in a mesh cage where different instar stink bugs were infested in two different trials (3rd and 4th nymphal stage, and adults). Average stink bug mortality was assessed at 1, 2, 4, and 7 days after application counting the number of dead insects and calculating the percent control based on the survivorship in the untreated treatment.
The average percent control of the pesticidal composition against brown stink bugs, Euschistus heros, was determined as the “Average Observed” action, and compared to the average of those obtained by using about 0.0167 weight %, 0.0333 weight %, and 0.0667 weight % of compound I alone, and the average of those obtained using about 0.0167 weight % and 0.0333 weight % of bifenthrin alone. The “Colby's Expected Action” was calculated using Colby's equation as discussed previously. […]

[7] = test system: brown stink bug, Euschistus heros; experiment: Bean piece dip bioassay, third-instar nymphs; details: Compound I alone, 0.04 weight %
Description: The active compounds were formulated in a 10% acetone solution with 0.025% non-ionic surfactant, TWEEN® 20. Bioassays were performed for each different active solution. Bean pieces (about one inch-long) were used for the tests. Four bean pieces were placed in each tested active solution and left there for 10 minutes. Bean pieces were taken out of the active solution, and each piece was placed in a well in a 32-well tray and allowed to air dry. Three third-instar nymphs of brown stink bug, Euschistus heros, were infested into each well. The percent control of the pesticidal composition against brown stink bug, Euschistus heros, was determined as the “Observed” action, and compared to those obtained by using about 0.04 weight % of compound I, and using about 0.0025 weight % of lambda-cyhalothrin alone. The “Colby's Expected Action” was calculated using Colby's equation as discussed previously.

[8] = test system: brown stink bug, Euschistus servus (Say); experiment: Field test, backpack sprayer, natural stink bug infestation; details: Compound I alone
Description: (§1) Dyne-Amic at 0.625% V/V was used as an adjuvant in the tank mix, and the application was done using a backpack sprayer. Trial was conducted under a natural stink bug infestation. Numbers of adults and nymphs were counted four days after application in 1.82 meters of row per plot using a shake sheet (0.91 meters by 2 rows).
(§2) The “Colby's Expected Action” was calculated using Colby's equation as discussed previously.
as §2, §2

[9] = test system: green stink bugs, Nezara viridula; experiment: as above; details: Compound I alone, 0.0306 weight %
Description: as §1, §2

[10] = Compound I alone (1:0), average of 0.0167, 0.0333 and 0.0667 weight %

Structure (SMILES): CCN(C(=O)CC[S+]([O-])CCC(F)(F)F)c1cn(-c2cccnc2)nc1Cl (stereo not drawn) [Compound II, N-(3-chloro-1-(pyridin-3-yl)-1H-pyrazol-4-yl)-N-ethyl-3-((3,3,3-trifluoropropyl)sulfinyl)propanamide]
- % Control Three Days After Treatment [1]: 20%
- % Control After Six Days of Treatment [2]: 0%
- % Control Five Days After Treatment [3]: 25%
- % Control Three Days After Treatment ([4]; 0.10 weight %): 12.5%
- % Control Three Days After Treatment ([4]; 0.13 weight %): 18.8%
- % Control Three Days After Treatment ([4]; 0.20 weight %): 6.3%

Structure (SMILES): CC1(C)C(C=C(Cl)Cl)C1C(=O)OC(C#N)c1cccc(Oc2ccccc2)c1 (stereo not drawn) [alpha-Cypermethrin, alpha-cypermethrin, reference compound]
- Average % Control ([5]; alpha-Cypermethrin alone (0:1), average of 0.0167 and 0.0333 weight %): 21.1%

Structure (SMILES): Cc1c(COC(=O)[C@@H]2[C@H](/C=C(\Cl)C(F)(F)F)C2(C)C)cccc1-c1ccccc1 (racemic) [Bifenthrin, bifenthrin, reference compound]
- Average % Control ([6]; Bifenthrin alone (0:1), average of 0.0167 and 0.0333 weight %): 41.6%

Structure (SMILES): CCN(C(=O)CCSCCC(F)(F)F)c1cn(-c2cccnc2)nc1Cl [Compound I, N-(3-chloro-1-(pyridin-3-yl)-1H-pyrazol-4-yl)-N-ethyl-3-((3,3,3-trifluoropropyl)thio)propanamide]
- Average % Control [5, 10]: 6.93%
- Average % Control [6, 10]: 9.34%
- % Control Four Days After Treatment [7]: 17%
- % Control Four Days After Treatment ([8]; 0.0306 weight %): 15.15%
- % Control Four Days After Treatment ([8]; 0.0459 weight %): 15.15%
- % Control Four Days After Treatment ([9]; Example 11A): 7.39%
- % Control Four Days After Treatment ([9]; Example 11B): 11.94%
